{"source": "PubChem BioAssay AID1645865", "about": "(Buhrlage Lab, Dana-Farber Cancer Institute and Novartis …, 2021)", "note": "Active and inactive are the calls of the source.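 Rule for the calls: active = maximal inhibition of the USP30 enzyme reaching 30% or more across the dose series; inactive = the rest.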"}
{"molecular_target": "Ubiquitin carboxyl-terminal hydrolase 30 (Homo sapiens) (UniProt Q70CQ3)", "sequence (Q70CQ3 whole entry, looked up)": "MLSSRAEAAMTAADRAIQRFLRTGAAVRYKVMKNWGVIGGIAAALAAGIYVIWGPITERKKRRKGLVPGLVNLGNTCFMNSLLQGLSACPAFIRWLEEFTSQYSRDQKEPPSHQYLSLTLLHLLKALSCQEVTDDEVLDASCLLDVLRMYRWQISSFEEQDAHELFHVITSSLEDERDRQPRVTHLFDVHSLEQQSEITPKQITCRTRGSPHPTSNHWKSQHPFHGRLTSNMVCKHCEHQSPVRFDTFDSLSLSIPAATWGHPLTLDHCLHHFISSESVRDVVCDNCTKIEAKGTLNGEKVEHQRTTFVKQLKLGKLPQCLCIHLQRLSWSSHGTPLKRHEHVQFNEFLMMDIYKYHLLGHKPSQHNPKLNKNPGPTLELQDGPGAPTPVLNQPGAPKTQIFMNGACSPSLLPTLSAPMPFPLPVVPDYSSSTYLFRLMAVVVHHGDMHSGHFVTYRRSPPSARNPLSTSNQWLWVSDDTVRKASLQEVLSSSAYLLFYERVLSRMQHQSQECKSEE", "experiment": "inhibitors of ubiquitin-specific protease 30 deubiquitylating enzyme, concentration dependence, in vitro biochemical, validation of primary hits (AID 1645865)", "details": "purified USP30, Ub-rhodamine cleavage, fluorescence, 2 h"}
{"smiles": "O=C(Nc1ccc2c(c1)OCCO2)c1cccc2nc3ccccc3nc12", "IC50": "1.56 µM"}
{"smiles": "Cc1ccc(NC(=O)CNC(=O)c2cc3ccccc3o2)cc1", "IC50": "17.7 µM"}
{"smiles": "COc1ccccc1CNC(=O)CCCn1c(=O)c2ccccc2n(CC(=O)N2CCN(c3ccccc3)CC2)c1=O", "IC50": "34.8 µM"}
{"smiles": "CN1CCC(N(C)S(=O)(=O)c2ccc(NC(=O)c3cccc(OCc4ccccc4)c3)cc2)CC1", "IC50": "34.3 µM"}
{"smiles": "O=C(COC(=O)c1n[nH]c2ccccc12)Nc1ccc(N2CCCCC2)cc1", "IC50": "34.9 µM"}
{"smiles": "Cc1cc(/C=C2/C(=N)N3C(c4ccccc4)=CSC3=NC2=O)c(C)n1-c1ccc2ccccc2c1", "IC50": "> 50 µM (inactive)"}
{"smiles": "Cc1cc(=O)n2c3c(c4c(cc13)c(CO)cc(=O)n4C)OC2", "IC50": "> 5 µM (inactive)"}
{"smiles": "O=C(CCCCn1c(=O)c2ccccc2n(CC(=O)Nc2ccc(F)c(Cl)c2)c1=O)NCc1ccco1", "IC50": "> 50 µM (inactive)"}
{"smiles": "O=C(COc1ccc(Cl)cc1)NCc1nnc(SCC(=O)NCc2ccc3c(c2)OCO3)o1", "IC50": "25.8 µM"}
{"smiles": "CC(C)=CCCC1(C)OC2=C(C(=O)c3cc(O)cc(O)c3C2=O)[C@H]2C=C(C)CC[C@H]21", "note": "(stereo partly specified)", "IC50": "> 50 µM (inactive)"}
{"smiles": "CN1CC2CN(C(=O)Nc3cccnc3)CCN2Cc2ccccc21", "note": "(stereo unspecified)", "IC50": "> 50 µM (inactive)"}
{"smiles": "COc1ccc(C(C(=O)NCc2ccccc2)N(C(=O)CCN2CCc3ccccc32)c2ccc(C)c(C)c2)cc1", "note": "(stereo unspecified)", "IC50": "> 50 µM (inactive)"}
{"smiles": "Cc1cccc(S(=O)(=O)N2CCc3nc4ccccc4n3CC2)c1", "IC50": "23.4 µM"}
{"smiles": "Cc1ccc(-n2c(=O)c3ccccc3n(Cc3c(F)cccc3Cl)c2=O)cc1", "IC50": "2.25 µM"}
{"smiles": "CCN(CC)C(=O)c1sc(NC(=O)/C=C/c2c(F)cccc2Cl)c(C#N)c1C", "IC50": "1.89 µM"}
{"smiles": "COc1cccc(-c2nc3cnccn3c2NCc2ccc3c(c2)OCO3)c1", "IC50": "> 50 µM (inactive)"}
{"smiles": "O=C(COC(=O)CCc1ccc(S(=O)(=O)N2CCOCC2)cc1)Nc1ccc2c(c1)OCCO2", "IC50": "> 50 µM (inactive)"}
{"smiles": "Cc1c(-c2nn3c(-c4ccco4)nnc3s2)cccc1[N+](=O)[O-]", "IC50": "2.6 µM"}
{"smiles": "CN(Cc1ccccc1)S(=O)(=O)c1ccc2[nH]cc(C(=O)NCc3cccs3)c(=O)c2c1", "IC50": "0.38 µM"}
{"smiles": "CCC(C(=O)NCc1ccncc1)N(c1cccc(Cl)c1)S(C)(=O)=O", "note": "(stereo unspecified)", "IC50": "> 50 µM (inactive)"}
{"smiles": "Cc1cc(C(=O)N2CC(C(=O)Nc3cc(C(F)(F)F)ccc3Cl)C2)no1", "IC50": "29.3 µM"}
{"smiles": "CCc1nc(-c2cc(C(=O)N3CCOCC3)c3ccccn23)cs1", "IC50": "> 50 µM (inactive)"}
{"smiles": "Cc1oc2ccc(NS(=O)(=O)c3ccc(F)cc3)cc2c1C(=O)OCc1ccccc1", "IC50": "48.2 µM"}
{"smiles": "CCOc1ccc(NC(=O)Cn2c(=O)n(CCC(=O)NCc3ccco3)c(=O)c3ccccc32)cc1", "IC50": "4.08 µM"}
{"smiles": "O=C(Nc1ccc(Cl)cc1)Nc1cccn2ncnc12", "IC50": "18.7 µM"}
{"smiles": "O=C(Cn1cncc(C(=O)NC2CCCC2)c1=O)Nc1cccc(F)c1", "IC50": "19.3 µM"}
{"smiles": "CCOc1ccc(NC(=O)Cn2cc(C(=O)c3ccc(Cl)cc3)c(=O)c3cc(OC)ccc32)cc1", "IC50": "0.975 µM"}
{"smiles": "CCOCCCn1c(SCC(=O)Nc2ccccc2C(F)(F)F)nc2ccccc2c1=O", "IC50": "17.1 µM"}
{"smiles": "O=C(COc1ccc2oc3c(c2c1)CCCC3)Nc1ccccn1", "IC50": "30.6 µM"}
{"smiles": "CC(C)(C)c1ccc(-c2nnc3n2-c2ccccc2SC3)cc1", "IC50": "19.1 µM"}
{"smiles": "CC(C)(C)N=C1Nc2ncccc2NC12CCCN(C(=O)c1ccccc1)C2", "note": "(stereo unspecified)", "IC50": "> 50 µM (inactive)"}
{"smiles": "O=C(NCc1ccccc1Cl)c1ccc(-c2nnc(-c3ccccc3)o2)cc1", "IC50": "1.52 µM"}
{"smiles": "COc1cc(Cl)ccc1C(=O)Nc1cccc(-n2cnnn2)c1C", "IC50": "10.2 µM"}
{"smiles": "CCOC(=O)c1cn(C2CC2)c2cc(N3CCNCC3)c([N+](=O)[O-])cc2c1=O", "IC50": "> 50 µM (inactive)"}
{"smiles": "CCn1ccc2c(cc(C(=O)Nc3cccc(OC)c3)n2C)c1=O", "IC50": "> 50 µM (inactive)"}
{"smiles": "O=c1c2ccccc2ncn1C1CCN(S(=O)(=O)c2ccccc2F)CC1", "IC50": "30.8 µM"}
{"smiles": "Cc1ccc(C(=O)NCc2ccc(C(=O)Nc3ccc(C)c(C)c3)o2)cc1", "IC50": "21.4 µM"}
{"smiles": "CC(C)(C)C(=O)Nc1ccc(C(=O)Nc2cccc(-c3nnc(-c4ccccc4)o3)c2)cc1", "IC50": "2.28 µM"}
{"smiles": "Cc1ccccc1Cn1cc(SCC(=O)Nc2ccc3c(c2)OCCO3)c2ccccc21", "IC50": "> 50 µM (inactive)"}
{"smiles": "NS(=O)(=O)c1ccc(NC(=O)Cn2cnc3cc([N+](=O)[O-])ccc3c2=O)cc1", "IC50": "> 50 µM (inactive)"}
{"smiles": "Cc1cc(C(=O)N2CCN(C3CCN(Cc4ccc(Cl)o4)CC3)C(=O)C2)c(C)o1", "IC50": "> 50 µM (inactive)"}
{"smiles": "COc1ccc(-c2cc3c(=O)n(CC(=O)Nc4ccccc4Cl)ccn3n2)cc1", "IC50": "4.23 µM"}
{"smiles": "O=C(O)c1ccc(C2Cc3c([nH]c(=O)[nH]c3=O)O2)cc1", "note": "(stereo unspecified)", "IC50": "9.78 µM"}
{"smiles": "CC(C)N1CC[C@@H]2[C@H](C1)CN2C(=O)Nc1cccc(F)c1", "IC50": "> 50 µM (inactive)"}
{"smiles": "COc1cccc(NC(=O)C2Cn3ccnc3C3(CCN(C(C)=O)CC3)O2)c1", "note": "(stereo unspecified)", "IC50": "> 50 µM (inactive)"}
{"smiles": "Cc1cccc2sc(NC(=O)c3nnn(-c4ccc(F)cc4)n3)nc12", "IC50": "> 50 µM (inactive)"}
{"smiles": "Cc1cnc(CN2CCCC(c3ccc4cn[nH]c4n3)C2)cn1", "note": "(stereo unspecified)", "IC50": "> 50 µM (inactive)"}
{"smiles": "O=C(CCCn1c(=O)[nH]c2cc(Cl)ccc2c1=O)N1CCc2ccccc2C1", "IC50": "35.4 µM"}
{"smiles": "CCn1ccc2c(cc(C(=O)Nc3cc(F)ccc3F)n2C)c1=O", "IC50": "> 50 µM (inactive)"}
{"smiles": "Cc1ccc(C(=O)Nc2ccc3c(c2)C(=O)N(C)c2ccccc2O3)cc1C", "IC50": "> 50 µM (inactive)"}
{"smiles": "CCCCc1ccc(-c2cc(C(=O)NCCN3CCOCC3)c3cc(Br)ccc3n2)cc1", "IC50": "2.31 µM"}
{"smiles": "CN(C)S(=O)(=O)N1CCCC2(C1)Nc1cccnc1NC2=NC1CCCC1", "note": "(stereo unspecified)", "IC50": "> 50 µM (inactive)"}
{"smiles": "CC(=O)c1cccc(NC(=O)c2ccc(N3CCCCC3)nn2)c1", "IC50": "35.6 µM"}
{"smiles": "COc1ccccc1NS(=O)(=O)c1cccc(NC(=O)CCc2nc3ccccc3s2)c1", "IC50": "4.01 µM"}
{"smiles": "CCCCN(CC)c1ncnc2c1sc1nc(-c3ccco3)c3c(c12)CC(C)(C)OC3", "IC50": "> 50 µM (inactive)"}
{"smiles": "O=C(CNC(=O)OCc1ccccc1)Nc1ccc(Br)cc1C(=O)c1ccccc1Cl", "IC50": "5.77 µM"}
{"smiles": "COc1ccc(/C=C/C(=O)N2CCc3ccccc32)cc1S(=O)(=O)N1CCOCC1", "IC50": "> 50 µM (inactive)"}
{"smiles": "O=C(Cn1c(=O)n(CCC(=O)N2CC=C(c3ccccc3)CC2)c(=O)c2ccccc21)NCc1ccco1", "IC50": "> 50 µM (inactive)"}
{"smiles": "O=S(=O)(c1cccc(F)c1)N1CCc2nc3ccccc3n2CC1", "IC50": "3.76 µM"}
{"smiles": "Cc1cccc(NC(=O)Nc2nnc(CC(=O)NCc3ccccc3)s2)c1", "IC50": "6.01 µM"}
{"smiles": "Cc1nc(C(=O)NC2(O)C(=O)c3ccccc3C2=O)cs1", "IC50": "23.1 µM"}
{"smiles": "Cc1ccc2nc(NC(=O)CSc3nnc(-c4ccncc4)n3C3CC3)sc2c1", "IC50": "2.81 µM"}
{"smiles": "COc1ccc(NC(=O)CNC(=O)c2ccc3nc(-n4cccc4)sc3c2)cc1", "IC50": "1.86 µM"}
{"smiles": "c1ccc2c(c1)CCc1c-2nc2ccccc2c1N1CCOCC1", "IC50": "> 50 µM (inactive)"}
{"smiles": "CCOc1ccc2c(c1)c(=O)c(C(=O)c1ccccc1)cn2CC(=O)Nc1ccccc1", "IC50": "4.27 µM"}
{"smiles": "Cn1c(COc2ccccc2)nnc1SCC(=O)Nc1ccc(N2CCOCC2)cc1", "IC50": "20 µM"}
{"smiles": "COC(=O)c1cc(C)sc1NC(=O)c1cccc(OC)c1OC", "IC50": "> 50 µM (inactive)"}
{"smiles": "O=C(OCc1cccc(Cl)c1)c1ccc2ccccc2n1", "IC50": "> 50 µM (inactive)"}
{"smiles": "Cc1nc(C(=O)Nc2cccc(Cl)c2Cl)nn1-c1cc(Cl)cc(Cl)c1", "IC50": "0.0981 µM"}
{"smiles": "O=C1CC(C(=O)Nc2ccccc2Cl)n2nc(-c3ccccc3)cc2N1", "note": "(stereo unspecified)", "IC50": "20.1 µM"}
{"smiles": "FC(F)(F)c1ccccc1CCN1CCc2nc3ncc(Cl)cc3cc2C1", "IC50": "> 50 µM (inactive)"}
